Experimental data from patent publication US10806717B2, “Methods and compositions for improving cognitive function” (The Johns Hopkins University, priority 2013, dated 2020).
Entries after “also recorded” stand apart in the source; their conditions may differ.

Columns and labels:
[1] = tested on: aMCI subjects; assay: Explicit 3-alternative forced choice task (lure stimuli); type: in vivo, human
Method: As described above, the drug treatment period is the two weeks preceding Visit 1 or 2 (with the two week period preceding the other Visit being the placebo phase). […]
The activity of the subject's medial temporal lobe is measured by functional MRI during the subject's participation in an explicit 3-alternative forced choice task, where participants view novel, repeated and similar (“lure”) stimuli. The Psychophysics Toolbox extensions in Matlab 7.0 (The MathWorks, Natick, Mass.) is used for stimulus presentation and behavioral data collection. Stimuli are color photographs of common objects. Each participant undergoes a series of testing runs during the functional imaging sessions, each run consisting of a mix of three types of image pairs: similar pairs, identical pairs and unrelated foils. These image pairs are fully randomized throughout the run and presented individually as a series of images (see FIG. 10A). Participants are instructed to make a judgment as to whether each object seen is new, old or similar. Of critical interest are the participants' responses when presented with the second of the pair of similar objects (the “lure”; see FIG. 10B). The correct identification by the subject of lure stimuli as “similar,” provides behavioral evidence of pattern separation, i.e., the separation of similar experiences into distinct non-overlapping representations. […]
As described above, the drug treatment period is the two weeks preceding Visit 1 or 2 (with the two week period preceding the other Visit being the placebo phase). […] For the subjects receiving the 62.5 mg BID drug treatment, a quarter of a scored 250 mg tablet of levetiracetam is used to achieve a dose of 62.5 twice a day, i.e., 125 mg/day which is approximately 1.5 mg/kg/day.
The activity of the subject's medial temporal lobe is measured by functional MRI during the subject's participation in an explicit 3-alternative forced choice task, where participants view novel, repeated and similar (“lure”) stimuli. […]

[2] = tested on: reelin in Entorhinal Cortex (EC2); assay: In situ hybridization of reelin mRNA after chronic levetiracetam; type: in vivo, rat; settings: levetiracetam 10 mg/kg/day, osmotic minipumps, four weeks (28 days), aged-impaired rats; vs AI-VEH p=0.033

CC[C@@H](C(N)=O)N1CCCC1=O [levetiracetam, (2S)-2-(2-oxopyrrolidin-1-yl)butanamide]
performance in the memory task (similar vs old responses to lures) ([1]; levetiracetam 62.5 mg BID for two weeks vs placebo, p=0.041): improves significantly
performance in the memory task (similar vs old responses to lures) ([1]; levetiracetam 125 mg twice a day for two weeks vs placebo, p=0.039): improves significantly
performance in the memory task (similar vs old responses to lures) ([1]; levetiracetam 250 mg BID for two weeks vs placebo, p=0.2396): does not significantly improve
reelin (mRNA expression) in entorhinal cortex [2]: restores the levels of reelin; also recorded: significantly increased the expression of reelin
